Columns and labels:
Type in all cases: in vivo
[1] = tested on: pigweed (Amaranthus retroflexus); assay: Test A postemergence, pigweed; conditions: postemergence, 0 to 100 scale, 0 is no effect, 100 is complete control, approximately 10 days
Text: (§1) Seeds of plant species selected from barnyardgrass (Echinochloa crus-galli), kochia (Kochia scoparia), ragweed (common ragweed, Ambrosia elatior), ryegrass, Italian (Italian ryegrass, Lolium multiflorum), foxtail, giant (giant foxtail, Setaria faberii), and pigweed (Amaranthus retroflexus), were planted into a blend of loam soil and sand and treated preemergence with a directed soil spray using test chemicals formulated in a non-phytotoxic solvent mixture which included a surfactant.
(§2) At the same time, plants selected from these weed species and also wheat (Triticum aestivum), corn (Zea mays), blackgrass (Alopecurus myosuroides), and galium (catchweed bedstraw, Galium aparine), were planted in pots containing the same blend of loam soil and sand and treated with postemergence applications of test chemicals formulated in the same manner. Plants ranged in height from 2 to 10 cm and were in the one- to two-leaf stage for the postemergence treatment. Treated plants and untreated controls were maintained in a greenhouse for approximately 10 days, after which time all treated plants were compared to untreated controls and visually evaluated for injury. Plant response ratings, summarized in Table A, are based on a 0 to 100 scale where 0 is no effect and 100 is complete control. A dash (—) response means no test result.

[2] = tested on: barnyardgrass (Echinochloa crus-galli); assay: Test A postemergence, barnyardgrass; conditions: postemergence, 0 to 100 scale, 0 is no effect, 100 is complete control, approximately 10 days
Text: as §1, §2

[3] = tested on: rice (Oryza sativa); assay: Test B flooded paddy test, rice; conditions: 250 g ai/ha, Flood; visual rating after 13 to 15 days; scale 0 to 100, 0 is no effect, 100 is complete control
Method: (§3) Plant species in the flooded paddy test selected from rice (Oryza sativa), sedge, umbrella (small-flower umbrella sedge, Cyperus difformis), ducksalad (Heteranthera limosa), and barnyardgrass (Echinochloa crus-galli) were grown to the 2-leaf stage for testing. At time of treatment, test pots were flooded to 3 cm above the soil surface, treated by application of test compounds directly to the paddy water, and then maintained at that water depth for the duration of the test. Treated plants and controls were maintained in a greenhouse for 13 to 15 days, after which time all species were compared to controls and visually evaluated. Plant response ratings, summarized in Table B, are based on a scale of 0 to 100 where 0 is no effect and 100 is complete control. A dash (—) response means no test result.

[4] = tested on: blackgrass (Alopecurus myosuroides); assay: Test A postemergence, blackgrass; conditions: postemergence, 0 to 100 scale, 0 is no effect, 100 is complete control, approximately 10 days
Text: as §1, §2

[5] = tested on: kochia (Kochia scoparia); assay: Test A postemergence, kochia; conditions: postemergence, 0 to 100 scale, 0 is no effect, 100 is complete control, approximately 10 days
Text: as §1, §2

[6] = tested on: ragweed (common ragweed, Ambrosia elatior); assay: Test A preemergence, ragweed; conditions: Preemergence, 0 to 100 scale (0 no effect, 100 complete control)
Text: as §1, §2

[7] = tested on: corn (Zea mays); assay: Test A postemergence, corn; conditions: postemergence, 0 to 100 scale, 0 is no effect, 100 is complete control, approximately 10 days
Text: as §1, §2

[8] = tested on: ryegrass, Italian (Italian ryegrass, Lolium multiflorum); assay: Test A postemergence, Italian ryegrass; conditions: postemergence, 0 to 100 scale, 0 is no effect, 100 is complete control, approximately 10 days
Text: as §1, §2

[9] = tested on: ryegrass, Italian (Italian ryegrass, Lolium multiflorum); assay: Test A preemergence, Italian ryegrass; conditions: Preemergence, 0 to 100 scale (0 no effect, 100 complete control)
Text: as §1, §2

[10] = tested on: pigweed (Amaranthus retroflexus); assay: Test A preemergence, pigweed; conditions: Preemergence, 0 to 100 scale (0 no effect, 100 complete control)
Text: as §1, §2

[11] = tested on: galium (catchweed bedstraw, Galium aparine); assay: Test A postemergence, galium; conditions: postemergence, 0 to 100 scale, 0 is no effect, 100 is complete control, approximately 10 days
Text: as §1, §2

[12] = tested on: foxtail, giant (giant foxtail, Setaria faberii); assay: Test A preemergence, giant foxtail; conditions: Preemergence, 0 to 100 scale (0 no effect, 100 complete control)
Text: as §1, §2

[13] = tested on: kochia (Kochia scoparia); assay: Test A preemergence, kochia; conditions: Preemergence, 0 to 100 scale (0 no effect, 100 complete control)
Text: as §1, §2

[14] = tested on: foxtail, giant (giant foxtail, Setaria faberii); assay: Test A postemergence, giant foxtail; conditions: postemergence, 0 to 100 scale, 0 is no effect, 100 is complete control, approximately 10 days
Text: as §1, §2

[15] = tested on: wheat (Triticum aestivum); assay: Test A postemergence, wheat; conditions: postemergence, 0 to 100 scale, 0 is no effect, 100 is complete control, approximately 10 days
Text: as §1, §2

[16] = tested on: barnyardgrass (Echinochloa crus-galli); assay: Test B flooded paddy test, barnyardgrass; conditions: 250 g ai/ha, Flood; visual rating after 13 to 15 days; scale 0 to 100, 0 is no effect, 100 is complete control
Method: as §3

[17] = tested on: sedge, umbrella (small-flower umbrella sedge, Cyperus difformis); assay: Test B flooded paddy test, umbrella sedge; conditions: 250 g ai/ha, Flood; visual rating after 13 to 15 days; scale 0 to 100, 0 is no effect, 100 is complete control
Method: as §3

[18] = tested on: ragweed (common ragweed, Ambrosia elatior); assay: Test A postemergence, ragweed; conditions: postemergence, 0 to 100 scale, 0 is no effect, 100 is complete control, approximately 10 days
Text: as §1, §2

[19] = tested on: ducksalad (Heteranthera limosa); assay: Test B flooded paddy test, ducksalad; conditions: 250 g ai/ha, Flood; visual rating after 13 to 15 days; scale 0 to 100, 0 is no effect, 100 is complete control
Method: as §3

[20] = tested on: barnyardgrass (Echinochloa crus-galli); assay: Test A preemergence, barnyardgrass; conditions: Preemergence, 0 to 100 scale (0 no effect, 100 complete control)
Text: as §1, §2

| SMILES | Plant response rating, Pigweed ([1]; 125 g ai/ha) | Plant response rating, Barnyardgrass ([2]; 125 g ai/ha) | Plant response rating, Rice [3] | Plant response rating, Blackgrass ([4]; 125 g ai/ha) | Plant response rating, Kochia ([5]; 125 g ai/ha) | Plant response rating, Ragweed ([6]; 125 g ai/ha) | Plant response rating, Corn ([7]; 125 g ai/ha) | Plant response rating, Ryegrass, Italian ([8]; 125 g ai/ha) | Plant response rating, Ryegrass, Italian ([9]; 125 g ai/ha) | Plant response rating, Pigweed ([10]; 125 g ai/ha) | Plant response rating, Galium ([11]; 125 g ai/ha) | Plant response rating, Foxtail, Giant ([12]; 125 g ai/ha) | Plant response rating, Kochia ([13]; 125 g ai/ha) | Plant response rating, Foxtail, Giant ([14]; 125 g ai/ha) | Plant response rating, Wheat ([15]; 125 g ai/ha) | Plant response rating, Barnyardgrass [16] | Plant response rating, Sedge, Umbrella [17] | Plant response rating, Ragweed ([18]; 125 g ai/ha) | Plant response rating, Ducksalad [19] | Plant response rating, Barnyardgrass ([20]; 125 g ai/ha) | other results |
| --- | --- | --- | --- | --- | --- | --- | --- | --- | --- | --- | --- | --- | --- | --- | --- | --- | --- | --- | --- | --- | --- |
| N#Cc1cccc(Oc2ncc(Cl)cn2)c1OCc1ccccc1Cl [Compound 2] | 0 | 0 | 0 | 0 | 30 | 0 | 0 | 0 | 0 | 0 | 20 | 10 | 0 | 0 | 0 | 0 | 0 | 0 | 0 | 0 | Plant response rating, Pigweed ([1]; 500 g ai/ha): 10; Plant response rating, Barnyardgrass ([2]; 500 g ai/ha): 10; Plant response rating, Blackgrass ([4]; 500 g ai/ha): 0; Plant response rating, Kochia ([5]; 500 g ai/ha): 40; Plant response rating, Ragweed ([6]; 500 g ai/ha): 0; Plant response rating, Corn ([7]; 500 g ai/ha): 30; Plant response rating, Ryegrass, Italian ([8]; 500 g ai/ha): 0; Plant response rating, Ryegrass, Italian ([9]; 500 g ai/ha): 0; Plant response rating, Pigweed ([10]; 500 g ai/ha): 20; Plant response rating, Galium ([11]; 500 g ai/ha): 50; Plant response rating, Foxtail, Giant ([12]; 500 g ai/ha): 70; Plant response rating, Kochia ([13]; 500 g ai/ha): 0; Plant response rating, Foxtail, Giant ([14]; 500 g ai/ha): 10; Plant response rating, Wheat ([15]; 500 g ai/ha): 0; Plant response rating, Ragweed ([18]; 500 g ai/ha): 10; Plant response rating, Barnyardgrass ([20]; 500 g ai/ha): 10 |
| N#Cc1cccc(Oc2ncc(Cl)cn2)c1OCc1ccc(Cl)cc1 [Compound 3] | 100 | 50 | 0 | 20 | 70 | 0 | 10 | 20 | 20 | 90 | 60 | 90 | 80 | 60 | 0 | 0 | 80 | 60 | 0 | 50 | Plant response rating, Pigweed ([1]; 500 g ai/ha): 100; Plant response rating, Barnyardgrass ([2]; 500 g ai/ha): 50; Plant response rating, Blackgrass ([4]; 500 g ai/ha): 50; Plant response rating, Kochia ([5]; 500 g ai/ha): 90; Plant response rating, Ragweed ([6]; 500 g ai/ha): 10; Plant response rating, Corn ([7]; 500 g ai/ha): 20; Plant response rating, Ryegrass, Italian ([8]; 500 g ai/ha): 30; Plant response rating, Ryegrass, Italian ([9]; 500 g ai/ha): 30; Plant response rating, Pigweed ([10]; 500 g ai/ha): 90; Plant response rating, Galium ([11]; 500 g ai/ha): 90; Plant response rating, Foxtail, Giant ([12]; 500 g ai/ha): 100; Plant response rating, Kochia ([13]; 500 g ai/ha): 90; Plant response rating, Foxtail, Giant ([14]; 500 g ai/ha): 70; Plant response rating, Wheat ([15]; 500 g ai/ha): 10; Plant response rating, Ragweed ([18]; 500 g ai/ha): 60; Plant response rating, Barnyardgrass ([20]; 500 g ai/ha): 90 |
| N#Cc1cccc(Oc2ncc(Cl)cn2)c1OCc1ccc(Cl)cn1 [Compound 6] | 80 | 10 | 0 | 10 | 60 | 0 | 20 | 0 | 0 | 90 | 40 | 20 | 0 | 10 | 0 | 0 | 0 | 0 | 0 | 0 | Plant response rating, Pigweed ([1]; 31 g ai/ha): 20; Plant response rating, Barnyardgrass ([2]; 31 g ai/ha): 0; Plant response rating, Blackgrass ([4]; 31 g ai/ha): 0; Plant response rating, Kochia ([5]; 31 g ai/ha): 10; Plant response rating, Ragweed ([6]; 31 g ai/ha): 0; Plant response rating, Corn ([7]; 31 g ai/ha): 10; Plant response rating, Ryegrass, Italian ([8]; 31 g ai/ha): 0; Plant response rating, Ryegrass, Italian ([9]; 31 g ai/ha): 0; Plant response rating, Pigweed ([10]; 31 g ai/ha): 10; Plant response rating, Galium ([11]; 31 g ai/ha): 30; Plant response rating, Foxtail, Giant ([12]; 31 g ai/ha): 0; Plant response rating, Kochia ([13]; 31 g ai/ha): 0; Plant response rating, Foxtail, Giant ([14]; 31 g ai/ha): 0; Plant response rating, Wheat ([15]; 31 g ai/ha): 0; Plant response rating, Ragweed ([18]; 31 g ai/ha): 0; Plant response rating, Barnyardgrass ([20]; 31 g ai/ha): 0 |
| Fc1cccc(Oc2ncc(Cl)cn2)c1OC/C=C/Cl [Compound 9] | 60 | 20 | 0 | 10 | 70 | 0 | 10 | 0 | 0 | 80 | 60 | 100 | 40 | 20 | 0 | 0 | 80 | 0 | 80 | 40 | Plant response rating, Pigweed ([1]; 500 g ai/ha): 100; Plant response rating, Barnyardgrass ([2]; 500 g ai/ha): 80; Plant response rating, Blackgrass ([4]; 500 g ai/ha): 70; Plant response rating, Kochia ([5]; 500 g ai/ha): 100; Plant response rating, Ragweed ([6]; 500 g ai/ha): 0; Plant response rating, Corn ([7]; 500 g ai/ha): 30; Plant response rating, Ryegrass, Italian ([8]; 500 g ai/ha): 10; Plant response rating, Ryegrass, Italian ([9]; 500 g ai/ha): 20; Plant response rating, Pigweed ([10]; 500 g ai/ha): 100; Plant response rating, Galium ([11]; 500 g ai/ha): 90; Plant response rating, Foxtail, Giant ([12]; 500 g ai/ha): 100; Plant response rating, Kochia ([13]; 500 g ai/ha): 100; Plant response rating, Foxtail, Giant ([14]; 500 g ai/ha): 80; Plant response rating, Wheat ([15]; 500 g ai/ha): 10; Plant response rating, Ragweed ([18]; 500 g ai/ha): 0; Plant response rating, Barnyardgrass ([20]; 500 g ai/ha): 100 |
| Cc1cccc(Oc2ncc(Cl)cn2)c1OC/C=C/Cl [Compound 59] | 70 | 100 | 0 | 50 |  | 0 | 10 | 0 | 0 | 100 | 30 | 50 | 100 | 50 | 0 | 20 | 90 | 0 | 100 | 100 | Plant response rating, Pigweed ([1]; 31 g ai/ha): 40; Plant response rating, Barnyardgrass ([2]; 31 g ai/ha): 40; Plant response rating, Blackgrass ([4]; 31 g ai/ha): 0; Plant response rating, Ragweed ([6]; 31 g ai/ha): 0; Plant response rating, Corn ([7]; 31 g ai/ha): 0; Plant response rating, Ryegrass, Italian ([8]; 31 g ai/ha): 0; Plant response rating, Ryegrass, Italian ([9]; 31 g ai/ha): 0; Plant response rating, Pigweed ([10]; 31 g ai/ha): 20; Plant response rating, Galium ([11]; 31 g ai/ha): 90; Plant response rating, Foxtail, Giant ([12]; 31 g ai/ha): 10; Plant response rating, Kochia ([13]; 31 g ai/ha): 60; Plant response rating, Foxtail, Giant ([14]; 31 g ai/ha): 20; Plant response rating, Wheat ([15]; 31 g ai/ha): 0; Plant response rating, Ragweed ([18]; 31 g ai/ha): 0; Plant response rating, Barnyardgrass ([20]; 31 g ai/ha): 30 |
